Reference: US9718770B2, “Substituted thioureas as heat shock protein 70 inhibitors” (Institute of Pharmacology and Toxicology Academy of …, priority 2013, dated 2017)

How the values were obtained:
MDA-MB-361 = experiment: CDI of example compounds and Lapatinib (ATPlite cell survival); assay type: cell-based; set-up: key: CDI = AB/(A×B); <1 synergistic; conditions: compound 5 μM + Lapatinib 1 μM, 72 h; natural Lapatinib-resistant human breast cancer cells; CDI<1 synergistic
Description: (§1) Cells: (BT474 and SK-BR3 are Lapatinib-sensitive human breast cancer cell strains; BT/LapR and SK/LapR are secondary Lapatinib-resistant human breast cancer cell strains upon Lapatinib stimulation; MDA-MB-361 and MDA-MB-453 are natural Lapatinib-resistant human breast cancer cell strains. BT474, MDA-MB-361, SK-BR3 and MDA-MB-453 are from American Type Culture Collection (ATCC))
(§2) In a 100 mm culture dish full of adherent cells, digestion with 1 ml 0.25% pancreatin (GIBCO) was carried out at 37° C. for 5 min, and the reaction was stopped with 2 ml medium (containing 10% FBS, GIBCO). The cells were dispersed and collected. After cell count, the cells were diluted to a concentration of 1×10^5 cells/ml, and were seeded to a 96-well plate at 50 μl/well, 5000 cell/well, 60 wells in total, PBS instead of cells was added to the wells of the outmost circle, and the incubation was carried out at 37° C. for 24 h for adherence.
(§3) For the sample group, samples to be tested were diluted with DMSO to a final concentration of 5 μM; to control wells, the medium containing the same concentration of solvent corresponding to the compound was added, the concentrations of the compounds were identical in each well, 5 wells in parallel were set for each concentration, 25 μL/well, and 25 μL medium was added to each well (for the combination group, 25 μL Lapatinib was added to reach a final concentration of 1 μM). The incubation was carried out at 37° C. for 72 h.
(§4) To each well, 50 μL ATPlite kit substrate solution was added. The plate was under shaking for 3 min, and was then placed in dark for 10 min. The lysis supernatant was drawn at 100 μL/well, and placed in a luminescent plate. The incubated luminescent plate was placed in an iluminescence apparatus, and the iluminescent value was read.
(§5) Data Processing Cell survival rate (%)=Experimental group RLU/control group RLU×100%
(§6) Coefficient of drug interaction (CDI) is used to evaluate the interaction of two drugs, CDI is calculated in accordance with the following formula: CDI=AB/(A×B)×100%. The calculation is performed according to the number of live cells (luminescent value), if CDI<1, the two drugs have a synergistic effect; if CDI<0.7, the synergistic effect is very significant; if CDI=1, the effect of the two drugs in combination is the sum of the effects of the two drugs; if CDI>1, the two drugs have an antagonistic effect.

SK-BR3 = experiment: as above; assay type: cell-based; set-up: key: CDI = AB/(A×B); <1 synergistic; conditions: compound 5 μM + Lapatinib 1 μM, 72 h; Lapatinib-sensitive human breast cancer cells; CDI<1 synergistic
Description: as §1, §2, §3, §4, §5, §6

MDA-MB-453 = experiment: as above; assay type: cell-based; set-up: key: CDI = AB/(A×B); <1 synergistic; conditions: compound 5 μM + Lapatinib 1 μM, 72 h; natural Lapatinib-resistant human breast cancer cells; CDI<1 synergistic
Description: as §1, §2, §3, §4, §5, §6

BT474 = experiment: as above; assay type: cell-based; set-up: key: CDI = AB/(A×B); <1 synergistic; conditions: compound 5 μM + Lapatinib 1 μM, 72 h; Lapatinib-sensitive human breast cancer cells; CDI<1 synergistic, <0.7 very significant, >1 antagonistic
Description: as §1, §2, §3, §4, §5, §6

SK/Lap^R1.0 = experiment: as above; assay type: cell-based; conditions: compound 5 μM + Lapatinib 1 μM, 72 h; secondary Lapatinib-resistant human breast cancer cells; CDI<1 synergistic
Description: as §1, §2, §3, §4, §5, §6

BT/Lap^R1.0 = experiment: as above; assay type: cell-based; conditions: compound 5 μM + Lapatinib 1 μM, 72 h; secondary Lapatinib-resistant human breast cancer cells; CDI<1 synergistic
Description: as §1, §2, §3, §4, §5, §6

Hsp70 ATPase = biological target: T1, Hsp70 ATPase (Homo sapiens, UniProt P0DMV8); experiment: Inhibition of Hsp70 ATPase activity (malachite green); assay type: biochemical; conditions: 200 μM; repeated screening carried out twice; Hsp70/Hsp40, 1 mM ATP; read-out: Inhibitory rate (%) on activity of Hsp70 ATPase
T1 construct: made in house; host or cells: E. coli
T1 sequence (P0DMV8 2-641 limits assumed): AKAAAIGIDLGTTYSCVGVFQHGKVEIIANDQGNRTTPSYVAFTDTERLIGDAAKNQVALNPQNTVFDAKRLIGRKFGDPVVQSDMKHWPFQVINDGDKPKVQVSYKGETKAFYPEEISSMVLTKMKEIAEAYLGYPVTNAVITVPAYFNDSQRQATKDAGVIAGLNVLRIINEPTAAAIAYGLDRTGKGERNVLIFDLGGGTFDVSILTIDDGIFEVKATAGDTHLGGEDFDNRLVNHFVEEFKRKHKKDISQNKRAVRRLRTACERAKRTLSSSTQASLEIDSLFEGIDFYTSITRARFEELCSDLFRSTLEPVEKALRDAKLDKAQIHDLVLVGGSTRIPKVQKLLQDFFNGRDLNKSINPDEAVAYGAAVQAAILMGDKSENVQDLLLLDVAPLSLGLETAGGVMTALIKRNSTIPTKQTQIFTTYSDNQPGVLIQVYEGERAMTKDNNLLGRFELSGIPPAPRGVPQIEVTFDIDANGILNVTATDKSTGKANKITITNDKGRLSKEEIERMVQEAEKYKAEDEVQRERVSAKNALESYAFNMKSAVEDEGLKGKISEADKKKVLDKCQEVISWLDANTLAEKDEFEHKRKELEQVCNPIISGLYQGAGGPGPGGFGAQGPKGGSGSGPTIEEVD
Description: (1) Protein: Humanized Hsp70, Hsp40, expressed by E. coli.
(2) Sample to be tested: 26 compound solids with different colors and states. Positive drugs AZ (CAS:1054543-47-3) and VER 155008 (CAS: 1134156-31-2) were synthesized in the laboratory.
(4) ATPase Assay buffer: • 0.017% Triton X-100; • 100 mM Tris-HCl; • 20 mM KCl; • 6 mM MgCl2, pH 7.4.
1) 13.08 μl DnaK (0.15 mg/mL, 2.14 μM), 1.96 μl DnaJ (1 mg/mL, 25 μM) were dissolved in 7.96 μl Assay Buffer (0.017% Triton X-100, 100 mM Tris-HCl, 20 mM KCl, and 6 mM MgCl2, pH 7.4), and the resultant solution was added to each well of the 96 well plate;
2) to each well of the 96 well plate, 1 μL sample to be tested (5 mM) or DMSO (solvent) was added, and vortexed with a Vortex agitator for 10 min; and then standing at 37° C. for 30 min;
3) to each well, 1 μL 25 mM ATP was added, to trigger the enzymatic reaction; (in each well, the final reaction volume was 25 μL, the final concentration of DnaK was 1.12 μM, the final concentration of DnaJ was 1.96 μM, the final concentration of DMSO was 4%, the final concentration of Triton X-100 was 0.01%, the final concentration of ATP was 1 mM, and the final concentration of sample to be tested was 200 μM), the enzymatic reaction was carried out at 37° C. for 3 h;
4) 80 μL Malachite green staining solution was then added to each well, and was vortexed gently;
5) 10 μL of 34% citrate sodium was then added immediately, and vortexed gently, to stop the ATP hydrolysis not caused by ATPase;
6) the resultant mixture was mixed thoroughly at 37° C. for 15 min, and OD620 was measured.
The inhibitory rate of Hsp70 ATPase activity is calculated in accordance with the following formula: Inhibitory rate (%)=(DMSO well OD−Experimental well OD)/(DMSO well OD−Blank well OD)×100
Criteria for preliminary screening: during preliminary screening, an example compound is regarded as effective in inhibition as long as its inhibitory rate is above 20% for Hsp70 ATPase at 200 μM.

Structure (SMILES)	CDI of example compounds and Lapatinib, MDA-MB-361 (MDA-MB-361)	CDI of example compounds and Lapatinib, SK-BR3 (SK-BR3)	CDI of example compounds and Lapatinib, MDA-MB-453 (MDA-MB-453)	CDI of example compounds and Lapatinib, BT474 (BT474)	CDI of example compounds and Lapatinib, SK/Lap^R1.0 (SK/Lap^R1.0)	CDI of example compounds and Lapatinib, BT/Lap^R1.0 (BT/Lap^R1.0)	inhibition at 200 µM (Hsp70 ATPase)
COc1cc(/C=C/C(=O)NC(NC(=S)NC2CCCCC2)C(C)C)cc(OC)c1OC (stereo not drawn) [Example 53, (2E)-N-[1-(3-cyclohexylthioureido)-2-methylpropyl]-3-(3,4,5-trimethoxyphenyl) acrylamide]	1.19	0.97	1.33	0.82	1.23	0.8	24.4%
Cc1ccccc1NC(=S)NC(NC(=O)/C=C/c1ccccc1)C1CC1 (stereo not drawn) [Example 49, N-[cyclopropyl-(3-o-methylphenylthioureido)-methyl] cinnamamide]	0.95	1.08	1.2	0.9	0.99	0.96	65.4%
CC(C)CC(NC(=O)/C=C/c1ccccc1)NC(=S)Nc1ccccc1 (stereo not drawn) [Example 38, (2E)-N-[3-methyl-1-(3-phenylthioureido)butyl] cinnamamide]	1	1.16	1.21	0.86	0.93	0.93	2.51%
CNC(=S)NC(CC(C)C)NC(=O)/C=C/c1cc(OC)c(OC)c(OC)c1 (stereo not drawn) [Example 43, (2E)-N-[3-methyl-1-(3-methylthioureido)butyl]-3-(3,4,5-trimethoxyphenyl) acrylamide]	0.95	1	1.28	1.03	0.93	1	7.62%
O=C(/C=C/c1ccccc1)NC(NC(=S)Nc1ccccn1)C1CC1 (stereo not drawn) [Example 37, (2E)-N-[cyclopropyl-(3-pyridin-2-ylthioureido)-methyl] cinnamamide]	0.99	0.99	1.34	0.98	1.03	1.02	1.51%
O=C(/C=C/c1ccccc1)NC(NC(=S)Nc1ccccc1)C1CC1 (stereo not drawn) [Example 41]	0.91	1.09	1.07	0.91	1.02	0.99	22.5%
COc1cc(/C=C/C(=O)NC(NC(=S)Nc2ccccc2C)C2CC2)cc(OC)c1OC (stereo not drawn) [Example 45, (2E)-N-[cyclopropyl-(3-o-methylphenylthioureido)-methyl]-3-(3,4,5-trimethoxyphenyl) acrylamide]	0.93	1.05	0.98	1.59	1.04	0.79	19.3%
COc1cc(/C=C/C(=O)NC(CC(C)(C)C)NC(=S)Nc2ccccn2)cc(OC)c1OC (stereo not drawn) [Example 34, (2E)-N-[3,3-dimethyl-1-(3-pyridin-2-ylthioureido)butyl]-3-(3,4,5-trimethoxyphenyl) acrylamide]	0.87	0.98	1.41	0.98	0.85	1	9.36%
COc1cc(/C=C/C(=O)NC(NC(=S)Nc2ccccc2)C2CC2)cc(OC)c1OC (stereo not drawn) [Example 28, (2E)-N-[cyclopropyl-(3-phenylthioureido)-methyl]-3-(3,4,5-trimethoxyphenyl) acrylamide]	0.93	1.06	1.21	1.07	0.95	0.99	50.5%
COc1cc(/C=C/C(=O)NC(NC(=S)Nc2cccnc2)C2CC2)cc(OC)c1OC (stereo not drawn) [Example 29, (2E)-N-[cyclopropyl-(3-pyridin-3-ylthioureido)-methyl]-3-(3,4,5-trimethoxyphenyl) acrylamide]	1	0.98	1.05	1.05	1.26	0.99	2.55%
CC(C)(C)C(NC(=O)/C=C/c1ccccc1)NC(=S)Nc1ccccc1 (stereo not drawn) [Example 40, (2E)-N-[2,2-dimethyl-1-(3-phenylthioureido)propyl] cinnamamide]	0.95	1.14	1.37	0.85	0.99	0.95	27.3%
COc1cc(/C=C/C(=O)NC(CC(C)(C)C)NC(=S)Nc2ccccc2)cc(OC)c1OC (stereo not drawn) [Example 32, (2E)-N-[3,3-dimethyl-1-(3-phenylthioureido)butyl]-3-(3,4,5-trimethoxyphenyl)acrylamide]	0.91	1.13	1.42	0.65	0.89	1.25	44.1%
